Key:
Assay type in all cases: functional, cell-based
[1] = biological target: T1, Solute carrier family 22 member 7 (Homo sapiens, UniProt Q9Y694); test: TP_TRANSPORTER: uptake in OAT2-expressing EcR293 cells
T1 sequence (Q9Y694 whole entry): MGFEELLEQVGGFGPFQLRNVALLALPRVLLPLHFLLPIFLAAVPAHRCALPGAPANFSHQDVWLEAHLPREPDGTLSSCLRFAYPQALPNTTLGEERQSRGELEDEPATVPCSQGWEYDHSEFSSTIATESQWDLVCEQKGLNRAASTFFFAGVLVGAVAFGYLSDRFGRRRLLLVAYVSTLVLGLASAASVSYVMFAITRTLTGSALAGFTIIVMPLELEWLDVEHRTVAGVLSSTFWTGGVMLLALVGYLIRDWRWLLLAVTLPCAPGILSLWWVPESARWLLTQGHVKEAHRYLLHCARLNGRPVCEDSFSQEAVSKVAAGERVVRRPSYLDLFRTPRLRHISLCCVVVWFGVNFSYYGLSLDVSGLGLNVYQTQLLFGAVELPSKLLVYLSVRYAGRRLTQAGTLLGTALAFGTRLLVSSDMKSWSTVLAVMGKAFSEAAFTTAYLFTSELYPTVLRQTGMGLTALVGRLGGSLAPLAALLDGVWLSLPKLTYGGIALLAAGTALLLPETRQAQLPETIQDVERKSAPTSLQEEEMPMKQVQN

[2] = biological target: T1, Solute carrier family 22 member 7; test: TP_TRANSPORTER: inhibition of PAH uptake (alpha-KG: 500 uM) in OAT2-expressing EcR293 cells; conditions: ecr293, 500 µM
[3] = biological target: T1, Solute carrier family 22 member 7; test: TP_TRANSPORTER: inhibition of PAH uptake (BSP: 100 uM) in OAT2-expressing EcR293 cells; conditions: ecr293, 100 µM

Compound	Activity [1]	Activity [2]	Activity [3]
CN(Cc1cnc2nc(N)nc(N)c2n1)c1ccc(C(=O)N[C@@H](CCC(=O)O)C(=O)O)cc1 [METHOTREXATE]	substrate [+]	–	–
O=C(O)CCC(=O)C(=O)O [ALPHA-KETOGLUTARIC ACID]	substrate [+]	is not an inhibitor [-]	–
O=C1OC(c2ccc(O)c(S(=O)(=O)[O-])c2)(c2ccc(O)c(S(=O)(=O)[O-])c2)c2c(Br)c(Br)c(Br)c(Br)c21.[Na+].[Na+] [SULFOBROMOPHTHALEIN SODIUM]	–	–	inhibitor [+]
Nc1ccc(C(=O)NCC(=O)O)cc1 [AMINOHIPPURIC ACID]	substrate [+]	–	–

Reference: ChEMBL document CHEMBL2073787, “Isolation of a family of organic anion transporters from human liver and kidney” (Biochem Biophys Res Commun, 2001)
